The values that follow are results of earlier work, collected in patent US20100209368A1, “METHOD AND PREPARATION FOR TREATING BALDNESS” (priority 2009, published 2010).

Assay in series [1]: not given
The source holds these as a separate data set.

In the case of zinc pyrithione, the solubility in water result was “sparingly soluble”.

As to `O=C(OOC(=O)c1ccccc1)c1ccccc1` [Benzoyl peroxide, benzoyl peroxide], the solubility in water entry is given as “low solubility”. Also, for the setting “ethanol”, the solubility in ethanol result is “slight solubility”. Besides, for the setting “isopropyl myristate”, the “solubility in isopropyl myristate” value is “soluble”. Moreover, the “solubility in polyethylene glycol (PEG)” value (polyethylene glycol) was “soluble”. In addition, the “stability upon addition of water or ethanol” value in series [1] (PEG or isopropyl myristate with added water or ethanol) is “greatly increased”. Also, in series [1] (pure PEG or isopropyl myristate), the “stability in pure solvents” value is “not stable”.
